From US9303042B2, “Triazolothienopyrimidine compound inhibitors of urea transporters and methods of using inhibitors” (The Regents of the University of California, priority 2012, dated 2016)

Tests used:
mice = assay: Urinary concentration in mice; type: in vivo, mouse; conditions: 400 μg intraperitoneal, dDAVP 1 h later, vs formulation alone
Procedure: In some studies, mice were placed on low, normal or […] diets (4%, 20% or 40% casein, Harlan Labs.) for 1 week prior study of dDAVP effects. […] Urea concentration was determined by a colorimetric enzymatic assay as described above. Measurements were also done in the absence of dDAVP in which urine was collected during free access to food and water. […]

[1] = In vitro metabolic stability in hepatic microsomes; type: in vitro ADME, rat
Procedure: Compounds, each at 5 μM, were incubated for specified times at 37° C. with rat liver microsomes (1 mg protein/ml; Sigma-Aldrich, St. Louis, Mo.) in potassium phosphate buffer (100 mM) containing 1 mM NADPH. The mixture was then chilled on ice, and 0.5 ml of ice-cold ethyl acetate was added.

[2] = LC/MS analysis of compound in mouse kidney, blood and urine; conditions: for many hours after intraperitoneal bolus 400 μg
Procedure: In some studies, mice were placed on low, normal or […] diets (4%, 20% or 40% casein, Harlan Labs.) for 1 week prior study of dDAVP effects. […] Urea concentration was determined by a colorimetric enzymatic assay as described above. Measurements were also done in the absence of dDAVP in which urine was collected during free access to food and water.
Kidneys were weighed, mixed with acetic acid (100 μL per 1 g tissue) and ethyl acetate (10 mL per 1 g tissue), and homogenized.

UT = conditions: literature; cited from earlier work
UT-B = biological target: T1, UT-B (Mus musculus, UniProt Q8VHL0); assay: Transepithelial urea transport in MDCK cells stably expressing UT-B; type: cell-based; conditions: phloretin 100 μM
T1 sequence (Q8VHL0 1-384): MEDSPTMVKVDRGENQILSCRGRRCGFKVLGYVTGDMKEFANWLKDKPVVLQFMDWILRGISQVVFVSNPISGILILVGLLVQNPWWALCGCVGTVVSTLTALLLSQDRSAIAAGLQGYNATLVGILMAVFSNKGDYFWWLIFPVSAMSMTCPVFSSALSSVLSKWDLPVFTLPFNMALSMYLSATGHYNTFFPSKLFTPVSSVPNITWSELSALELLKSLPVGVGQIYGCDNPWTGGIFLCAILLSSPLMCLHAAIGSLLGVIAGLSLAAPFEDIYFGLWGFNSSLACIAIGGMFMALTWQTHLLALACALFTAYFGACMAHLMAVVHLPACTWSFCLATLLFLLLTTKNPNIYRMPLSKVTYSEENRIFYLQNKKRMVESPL
Procedure: (§1) UT-B selectivity and cytotoxicity were studied. Because of sequence similarities between UT-B and UT-A isoforms, UT-A inhibition was measured. Transepithelial urea transport was measured in MDCK cells stably expressing UT-A1, UT-A3, and UT-B. UT-A1 and UT-A3 are cAMP-regulated urea transporters expressed in kidney tubule epithelia (see, e.g., Frohlich et al., Am. J. Physiol. Cell Physiol. 291:C600-606 (2006); Tickle et al., Am. J. Physiol. Regul. Integr. Comp Physiol 0.297: R323-329 (2009); Stewart et al., Am. J. Physiol. Renal Physiol. 292:F1157-63 (2006)). MDCK cells were cultured on collagen-coated porous filters for measurement of urea accumulation in the apical solution following addition of urea to the basolateral solution.
(§2) cDNAs encoding mouse UT-A3 and UT-B were cloned into pcDNA3.1 and used to generate stably transfected MDCK cell lines. MDCK cells stably expressing rat UT-A1 (MDCK-UT-A1) (see, e.g., Frohlich et al., supra) were obtained as described (see, e.g., Levin et al., FASEB J., supra). Cells were cultured in DMEM containing 10% FBS and 0.5 mg/mL G418. […] Urea flux in the basolateral-to-apical direction across unstimulated and forskolin-stimulated cell layers was measured in response to a 15-mM urea gradient. […]

UT-A1 = biological target: T2, UT-A1 (Rattus norvegicus, UniProt Q62668); assay: Transepithelial urea transport in MDCK cells stably expressing UT-A1; type: cell-based; conditions: phloretin 100 μM
T2 construct: expressed in transfected cells; host or cells: MDCK cells (MDCK-UT-A1), obtained as described in cited literature
T2 sequence (Q62668 1-929): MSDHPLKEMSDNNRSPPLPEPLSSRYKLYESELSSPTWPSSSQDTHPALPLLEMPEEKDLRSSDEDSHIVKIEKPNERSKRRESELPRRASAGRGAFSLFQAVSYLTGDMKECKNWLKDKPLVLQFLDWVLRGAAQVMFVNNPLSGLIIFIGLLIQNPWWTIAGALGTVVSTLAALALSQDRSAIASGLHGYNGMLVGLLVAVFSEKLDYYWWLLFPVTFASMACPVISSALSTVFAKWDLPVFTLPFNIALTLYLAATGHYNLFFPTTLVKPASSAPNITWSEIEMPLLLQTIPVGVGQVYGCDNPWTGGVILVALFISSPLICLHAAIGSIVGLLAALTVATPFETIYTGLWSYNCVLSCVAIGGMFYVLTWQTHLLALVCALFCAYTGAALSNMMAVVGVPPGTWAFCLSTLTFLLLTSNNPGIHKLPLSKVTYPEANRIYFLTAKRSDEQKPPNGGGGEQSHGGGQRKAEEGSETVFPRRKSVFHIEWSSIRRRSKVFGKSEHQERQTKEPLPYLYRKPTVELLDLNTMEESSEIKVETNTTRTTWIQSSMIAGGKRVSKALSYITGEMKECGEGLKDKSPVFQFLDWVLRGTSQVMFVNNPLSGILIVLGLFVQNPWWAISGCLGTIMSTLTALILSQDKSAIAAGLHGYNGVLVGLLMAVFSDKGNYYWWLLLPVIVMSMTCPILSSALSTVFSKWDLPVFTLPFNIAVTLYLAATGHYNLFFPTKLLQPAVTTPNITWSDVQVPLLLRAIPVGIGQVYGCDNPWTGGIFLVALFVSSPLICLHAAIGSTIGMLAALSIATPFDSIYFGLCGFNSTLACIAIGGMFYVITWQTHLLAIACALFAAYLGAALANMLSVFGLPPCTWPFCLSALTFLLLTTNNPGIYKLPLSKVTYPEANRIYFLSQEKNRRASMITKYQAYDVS
Procedure: as §1, §2

UT-A3 = biological target: T3, UT-A3 (Mus musculus, UniProt Q8R4T9); assay: Transepithelial urea transport in MDCK cells stably expressing UT-A3; type: cell-based; conditions: phloretin 100 μM
T3 construct: expressed in transfected cells
T3 sequence (Q8R4T9 1-461 isoform Q8R4T9-3): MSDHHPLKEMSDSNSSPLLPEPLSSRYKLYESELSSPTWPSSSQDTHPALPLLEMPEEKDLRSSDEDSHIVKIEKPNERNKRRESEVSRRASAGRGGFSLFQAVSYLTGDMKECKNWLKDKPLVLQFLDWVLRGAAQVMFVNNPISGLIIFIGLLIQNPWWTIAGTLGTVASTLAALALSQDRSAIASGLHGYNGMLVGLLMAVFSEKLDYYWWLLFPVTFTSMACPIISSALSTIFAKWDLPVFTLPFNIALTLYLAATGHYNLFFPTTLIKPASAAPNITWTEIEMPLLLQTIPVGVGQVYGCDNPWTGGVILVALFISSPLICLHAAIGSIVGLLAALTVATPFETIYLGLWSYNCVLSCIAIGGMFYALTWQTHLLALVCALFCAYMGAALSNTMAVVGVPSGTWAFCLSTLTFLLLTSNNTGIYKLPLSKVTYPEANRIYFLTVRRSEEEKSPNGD
Procedure: as §1, §2

TMEM16A = biological target: T4, TMEM16A (Homo sapiens, UniProt Q5XXA6); assay: TMEM16A calcium-activated chloride conductance by short-circuit current; type: cell-based; conditions: 100 μM
T4 construct: expressed in transfected cells
T4 sequence (Q5XXA6 1-986): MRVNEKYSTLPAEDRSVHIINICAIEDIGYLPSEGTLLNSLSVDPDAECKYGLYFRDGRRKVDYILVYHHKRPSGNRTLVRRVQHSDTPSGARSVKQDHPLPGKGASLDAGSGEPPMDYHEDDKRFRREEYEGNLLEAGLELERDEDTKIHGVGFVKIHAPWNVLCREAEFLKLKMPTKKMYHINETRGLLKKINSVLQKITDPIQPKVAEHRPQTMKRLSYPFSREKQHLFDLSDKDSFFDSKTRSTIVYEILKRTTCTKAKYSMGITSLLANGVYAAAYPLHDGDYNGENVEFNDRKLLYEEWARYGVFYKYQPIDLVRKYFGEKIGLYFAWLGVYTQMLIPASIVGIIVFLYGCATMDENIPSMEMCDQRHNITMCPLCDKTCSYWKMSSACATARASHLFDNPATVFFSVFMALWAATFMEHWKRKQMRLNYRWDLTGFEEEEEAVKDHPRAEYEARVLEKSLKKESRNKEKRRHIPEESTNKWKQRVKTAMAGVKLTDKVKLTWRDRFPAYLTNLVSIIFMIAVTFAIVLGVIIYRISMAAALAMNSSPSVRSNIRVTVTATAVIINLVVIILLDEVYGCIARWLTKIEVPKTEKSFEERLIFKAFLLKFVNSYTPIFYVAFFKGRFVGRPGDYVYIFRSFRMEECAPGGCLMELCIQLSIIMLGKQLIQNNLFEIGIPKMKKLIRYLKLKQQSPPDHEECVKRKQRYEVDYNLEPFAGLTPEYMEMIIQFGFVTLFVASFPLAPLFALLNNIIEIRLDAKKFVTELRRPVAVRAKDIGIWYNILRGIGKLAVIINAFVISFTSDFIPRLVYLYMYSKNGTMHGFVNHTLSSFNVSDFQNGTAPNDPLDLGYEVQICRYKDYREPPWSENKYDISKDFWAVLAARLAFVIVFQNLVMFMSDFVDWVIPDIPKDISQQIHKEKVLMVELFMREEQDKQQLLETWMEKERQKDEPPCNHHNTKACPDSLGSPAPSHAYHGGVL
Procedure: CFTR chloride conductance was measured by short-circuit current analysis in Fisher rat thyroid (FRT) cells stably expressing CFTR, as described (see, e.g., Ma et al., J. Biol. Chem. (2002), supra). CFTR chloride conductance was stimulated by forskolin and inhibited by a thiazolidinone compound that inhibits CFTR (CFTRinh-172). TMEM16A calcium-activated chloride conductance was measured by short-circuit current analysis in FRT cells stably expressing TMEM16A, as described (see, e.g., Namkung et al., J. Biol. Chem. 286:2365-2374, 2011. TMEM16A was stimulated by ATP and inhibited by tannic acid (100 μM). Cytotoxicity was measured in MDCK using the MTT assay [3(4,5-dimethyl-thiazol-2-yl)-2,5-diphenyl tetrazolium bromide] by standard procedures.

CFTR = biological target: T5, CFTR (Homo sapiens, UniProt P13569); assay: CFTR chloride conductance by short-circuit current; type: cell-based; conditions: 20 μM
T5 construct: expressed in transfected cells
T5 sequence (P13569 whole entry): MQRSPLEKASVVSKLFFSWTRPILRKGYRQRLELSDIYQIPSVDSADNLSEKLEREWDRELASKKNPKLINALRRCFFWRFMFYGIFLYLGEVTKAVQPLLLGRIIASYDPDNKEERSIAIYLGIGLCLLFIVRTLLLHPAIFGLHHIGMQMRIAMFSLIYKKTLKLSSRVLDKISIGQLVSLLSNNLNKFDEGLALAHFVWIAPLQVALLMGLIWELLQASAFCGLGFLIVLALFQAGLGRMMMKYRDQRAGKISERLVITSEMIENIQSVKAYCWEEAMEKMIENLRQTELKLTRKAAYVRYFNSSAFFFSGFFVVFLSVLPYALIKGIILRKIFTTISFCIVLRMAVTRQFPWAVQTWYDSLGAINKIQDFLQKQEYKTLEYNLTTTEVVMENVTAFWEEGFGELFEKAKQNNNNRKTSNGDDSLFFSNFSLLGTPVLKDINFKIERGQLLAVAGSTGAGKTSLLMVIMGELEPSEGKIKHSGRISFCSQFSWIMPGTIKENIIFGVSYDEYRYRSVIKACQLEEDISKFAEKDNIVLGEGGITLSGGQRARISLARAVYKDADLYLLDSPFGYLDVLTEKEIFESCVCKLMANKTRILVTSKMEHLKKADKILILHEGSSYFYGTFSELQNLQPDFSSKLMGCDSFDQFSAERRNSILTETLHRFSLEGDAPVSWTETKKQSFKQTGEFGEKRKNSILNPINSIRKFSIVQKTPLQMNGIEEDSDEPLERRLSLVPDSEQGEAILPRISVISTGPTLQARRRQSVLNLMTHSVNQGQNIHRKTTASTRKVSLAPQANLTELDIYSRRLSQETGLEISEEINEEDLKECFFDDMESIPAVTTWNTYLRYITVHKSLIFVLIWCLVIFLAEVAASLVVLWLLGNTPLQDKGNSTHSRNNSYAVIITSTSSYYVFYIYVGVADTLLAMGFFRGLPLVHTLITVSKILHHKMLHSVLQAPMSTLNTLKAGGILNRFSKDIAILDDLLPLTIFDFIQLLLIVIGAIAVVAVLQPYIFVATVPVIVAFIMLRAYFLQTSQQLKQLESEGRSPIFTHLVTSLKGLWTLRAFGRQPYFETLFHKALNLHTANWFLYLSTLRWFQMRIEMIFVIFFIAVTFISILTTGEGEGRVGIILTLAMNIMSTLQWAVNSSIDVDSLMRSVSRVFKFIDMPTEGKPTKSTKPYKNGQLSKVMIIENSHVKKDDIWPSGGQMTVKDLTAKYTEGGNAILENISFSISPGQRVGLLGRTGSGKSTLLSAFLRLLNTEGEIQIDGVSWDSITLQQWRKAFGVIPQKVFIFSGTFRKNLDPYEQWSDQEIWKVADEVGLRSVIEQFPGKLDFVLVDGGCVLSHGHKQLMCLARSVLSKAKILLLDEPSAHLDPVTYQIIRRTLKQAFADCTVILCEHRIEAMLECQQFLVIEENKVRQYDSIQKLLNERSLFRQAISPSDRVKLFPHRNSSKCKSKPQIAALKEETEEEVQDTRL

Compound: CC(F)(F)c1ccc(S(=O)(=O)c2nnn3c2nc(NCc2cccs2)c2sccc23)cc1 [Compound 3k, {3-[4-(1,1-Difluoro-ethyl)-benzenesulfonyl]-thieno[2,3-e][1,2,3]triazolo[1,5-a]pyrimidin-5-yl}-thiophen-2-ylmethyl-amine]
- reduction of urine osmolality (mice): approximately 0.5 Osm/kg H2O
- t1/2 for disappearance in hepatic microsomes ([1]; hepatic microsomes, NADPH): approximately 120 min
- % Remaining ([1]; parent molecule after 30 min incubation with rat liver microsomes): 96%
- stability in vitro compared to UTBinh 14 ([1]; ratio of microsomal t1/2): approximately 40 fold
- concentrations in blood, kidney and urine [2]: < 1000 nM

Compound: O=C(CCc1ccc(O)cc1)c1c(O)cc(O)cc1O [phloretin, reference compound]
- concentration exhibiting activity (UT): > 0.5 mM
- UT-facilitated urea transport (UT-B) (UT-B): inhibited
- UT-facilitated urea transport (UT-A1) (UT-A1): inhibited
- UT-facilitated urea transport (UT-A3) (UT-A3): inhibited

Compound: O=C(OC[C@H]1O[C@@H](OC(=O)c2cc(O)c(O)c(OC(=O)c3cc(O)c(O)c(O)c3)c2)[C@H](OC(=O)c2cc(O)c(O)c(OC(=O)c3cc(O)c(O)c(O)c3)c2)[C@@H](OC(=O)c2cc(O)c(O)c(OC(=O)c3cc(O)c(O)c(O)c3)c2)[C@@H]1OC(=O)c1cc(O)c(O)c(OC(=O)c2cc(O)c(O)c(O)c2)c1)c1cc(O)c(O)c(OC(=O)c2cc(O)c(O)c(O)c2)c1 [tannic acid, reference compound]
- ATP-induced current (TMEM16A) (TMEM16A): blocked

Compound: CFTRinh-172 [reference compound]
- CFTR chloride current (CFTR): blocked
